For series [1], the system named is Mycobacterium tuberculosis. Nature of the series: Antimycobacterial activity against Mycobacterium tuberculosis H37Rv in GAS medium by microplate alamar blue assay. The class given is functional. In general terms: The colour change of resazurin is a common sign of viable cells or microbes.
Series [2] concerns Mycobacterium tuberculosis. Put plainly: Antimycobacterial activity against Mycobacterium tuberculosis H37Rv in 7H12 medium by microplate alamar blue assay. It counts as functional.
For series [3], the system named is Mycobacterium tuberculosis. Nature of the series: Antimycobacterial activity against Mycobacterium tuberculosis H37Rv. The class given is functional.
In series [4] the test system is Mycobacterium tuberculosis. Nature of the series: Antimycobacterial activity against non-replicating Mycobacterium tuberculosis H37Rv by low oxygen recovery assay. The class given is functional, organism-based.
In series [5] the test system is Vero. Put plainly: Cytotoxicity against African green monkey Vero cells. It counts as cell-based. The following applies: chlorocebus sabaeus.

Converted amounts (≈) assume the structure as drawn. The source made the active and inactive calls. The calls are words filed in the database; no cut-off is given here.

For orientation: MIC means the least concentration at which growth counts as inhibited. On to `C[C@H]1COC2(CCN(S(=O)(=O)c3cc(-c4ccccc4)cc(C(F)(F)F)c3)CC2)O1`, for which the MIC in series [1] is 17.4 µM (≈ 7.68 µg/mL); in series [2], more than 64 µM.

For the compound `O=C(OCc1ccccc1)c1cc([N+](=O)[O-])cc(C(F)(F)F)c1`, the minimum inhibitory concentration (MIC) in series [1] was 2.03 µM (≈ 0.66 µg/mL); in series [2], more than 50 µM.

Consider `C[C@H]1COC2(CCN(c3nc(=O)c4cc(C(F)(F)F)cc([N+](=O)[O-])c4s3)CC2)O1` [BTZ-043], for which the MIC was less than 0.02 µM in series [1], 1 ng/mL (≈ 2.32 nM) in series [3] and less than 0.02 µM in series [2].

As to `C[C@H]1COC2(CCN(S(=O)(=O)c3cc([N+](=O)[O-])cc([N+](=O)[O-])c3)CC2)O1`, the values for the MIC in series [1] and in series [2] were 2.05 µM (≈ 0.794 µg/mL) and 1.53 µM (≈ 0.593 µg/mL), respectively. The result in series [4] was Active. Also, in series [5], the Activity result is “Non-toxic”.

For the compound `C[C@H]1COC2(CCN(S(=O)(=O)c3cc(-c4cccc[n+]4[O-])cc(C(F)(F)F)c3)CC2)O1`, the MIC in series [1] and in series [2] was more than 64 µM each time.

Regarding `C[C@H]1COC2(CCN(S(=O)(=O)c3cc(-c4ccccn4)cc(C(F)(F)F)c3)CC2)O1`, the results for the MIC in series [1] and in series [2] were 49.3 µM (≈ 21.8 µg/mL) and more than 50 µM, respectively.

`C[C@H]1COC2(CCN(S(=O)(=O)c3cc([N+](=O)[O-])cc(C(F)(F)F)c3)CC2)O1`: the MIC was determined as 10.2 µM (≈ 4.19 µg/mL) in series [1] and 6.99 µM (≈ 2.87 µg/mL) in series [2]. For the same compound, in series [4], the result was Active. Also, the Activity result in series [5] was “Toxic”.

`C[C@H]1COC2(CCC(C(=O)Nc3cc([N+](=O)[O-])cc(C(F)(F)F)c3)CC2)O1` (stereo partly drawn): the MIC in series [1] was found to be 18.4 µM (≈ 7.15 µg/mL); in series [2], 23 µM (≈ 8.93 µg/mL).

As to `O=C(OCc1ccccc1)c1cc([N+](=O)[O-])cc([N+](=O)[O-])c1`, the MIC in series [1] worked out at 0.27 µM (≈ 0.0816 µg/mL); in series [2], 13 µM (≈ 3.94 µg/mL).

In the case of `C[C@H]1COC2(CCC(C(=O)Nc3cccc(C(F)(F)F)c3)CC2)O1` (stereo partly drawn), the values for the MIC in series [1] and in series [2] were 17.9 µM (≈ 6.15 µg/mL) and more than 50 µM, respectively.

With `C[C@H]1COC2(CCN(S(=O)(=O)c3cc(Br)cc(C(F)(F)F)c3)CC2)O1`, the MIC in series [2] is more than 10 µM.

For the compound `C[C@H]1COC2(CCC(C(=O)Nc3cc([N+](=O)[O-])cc([N+](=O)[O-])c3)CC2)O1` (stereo partly drawn), the MIC in series [1] was found to be 22.6 µM (≈ 8.26 µg/mL); in series [2], 47.9 µM (≈ 17.5 µg/mL).

These data come from ChEMBL document CHEMBL3286115, “Design and Syntheses of Anti-Tuberculosis Agents Inspired by BTZ043 Using a Scaffold Simplification Strategy” (ACS Med Chem Lett, 2014).
